Measured values published in patent US12065468B2, “Heme-binding small peptide” (priority 2021, dated 2024).
Entries after “also recorded” stand apart in the source; their conditions may differ.

What was measured:
Cytochrome c = assay: UV-Vis test of heme sequestration from Cytochrome c; format: binding; details: excess NCR247
Procedure: FIG. 13. […] The absorption spectrum of Cytochrome c remains unaltered even after addition of excess NCR247.
(§1) UV-VIS spectroscopy: All absorption spectra were collected in a Tecan Spark™ 10 M microplate reader using black polystyrene 96-well plates. Absorbance from 300 nm to 700 nm was recorded with a 5 nm interval after an initial shaking at 100 rpm for 15 secs. Heme binding to synthesized peptide: Water (pH 7.4) was used in all reactions and was first added to the wells. Peptides solubilized in water were added and then heme solubilized in 0.1 M NaOH was added, mixed thoroughly and measurements were taken immediately. Peptide and heme volume were kept to a maximum of 5 ul in volume. For all the absorption curves (except Extended FIG. 3a) […] was used. The same was also repeated with 0.1 M Tris buffer (pH 7.4) as a base buffer instead of water.

[1] = test system: Human red blood cells (hRBC); assay: Haemolysis assay; format: cell-based; details: 1.5 h at 37° C., 4% hRBC; listed as L-NCR247
Procedure: Haemolysis assay: Standard methods of hemolysis assay as previously published was followed^96. Human red blood cells (hRBC) were washed three times with phosphate-buffered saline (PBS: 10 mM Na2HPO4, 1.76 mM K2HPO4, pH 7.4, containing […], and 2.7 mM KCl). Two-fold serial dilutions of the peptide solutions were then added to 50 μl aliquots of hRBC in PBS to adjust a final volume to 100 μl and hRBC concentration to 4% (v/v) in each well of a 96-well plate. The suspension was incubated for 1.5 h at 37° C. under stirring at 1000 rpm. The plates were centrifuged at 2000 g for 5 min. Supernatant aliquots of 50 μl were transferred into flat-bottomed 96-well microplates, and the release of hemoglobin was monitored by measuring the absorbance at 405 nm in a microplate reader. hRBC in PBS (0% lysis control) and 0.1% Triton X-100 (100% lysis control) were used as negative and positive controls, respectively. Hemolytic activity was expressed as a percentage of hemolysis calculated according to the following equation: Hemolysis (%)=(OD405nm sample—OD405nm 0% lysis control)/(OD405nm 100% lysis control−OD405nm 0% lysis control)*100.

[2] = Peroxidase assay of heme on TMB; format: biochemical; details: 5 μM NCR247 + 5 μM heme
Procedure: Peroxidase assay: Pierce TMB Substrate Kit was used to measure the peroxidase activity of the heme and equimolar NCR247 was added to heme according to the manufacturer's instructions. In short, 100 μL of TMB substrate solution (1:1 of TMB substrate and Peroxide solution) was added to 96 well black, polystyrene flat bottomed, non-treated, sterile plates. 5 μM heme or 5 μM NCR247+5 μM heme was added to the wells and the progression of the reaction was measured in a Tecan Spark™ plate reader. UV-Vis absorption values at 370 nm and 652 nm are noted every minute over a time period of 16 mins.

Aβ-heme complex = target: T1, Aβ-heme complex (Homo sapiens, UniProt P05067); assay: UV-Vis spectrum of Aβ-heme complex with NCR247; format: binding
T1 construct: equimolar addition of NCR247 to the Aβ (1-42) amyloid peptide-heme complex; purchased Genscript
Procedure: FIG. 4. […] In a, b and e, data are presented as mean of three independent replicates ±s.d. In a and b ****P<0.0001 vs untreated sample; two-way analysis of variance (ANOVA) with multiple comparisons.
as §1

S. meliloti = assay: Radioactive 55Fe uptake assay; format: cell-based, Sinorhizobium meliloti; details: 2 μM, medium with sufficient iron
Procedure: Iron uptake assay: Radioactive ^55Fe uptake assays were performed as described previously^66 with some modifications. Cells were grown in LB to an O.D.600 nm of 0.2. 20 ml cultures were then spun down, and suspended in 20 ml minimal media with 5 μM FeSO4 for 1 hour. 2 μM NCR247 and then 100 μM sodium ascorbate was added, and cells were incubated for additional 30 mins. At time 0, 1 μM^55FeCl3 mixed with ascorbate was added. At given time points, 1 ml aliquots were taken and quenched in 3 ml of ice-cold quench buffer (0.1M Tris, 1 mM ascorbate, and 100 μM FeSO4, pH 6.0). The cells were collected immediately after quenching on 0.45-μm filters, presoaked in quench buffer using a Millipore sigma 1225 vacuum filtration unit. The radioactive ^55Fe content of the filters with cells was counted using a scintillation counter. Internalized ^55Fe levels were normalized to the protein levels in the cell.

Candida albicans = assay: C. albicans biofilm formation; format: cell-based
[3] = test system: ndvA (FeuP regulated), SMc 01581 (ExoS regulated); assay: qRT-PCR of FeuP and ExoS regulated genes; format: cell-based, Sinorhizobium meliloti; details: 2 μM, 30 mins; listed as L-NCR247
Text: FIG. 17. […] The data are expressed as starting quantities (SQ) of respective mRNAs normalized to the control gene SMc00128 and are presented as average of three technical replicates FIG. 18. NCR247 binds heme and this heme sequestration leads to an iron starvation response in S. meliloti and this happens in the cytoplasm since a bacA mutant is defective in inducing iron import genes. […] The data are expressed as starting quantities (SQ) of respective mRNAs normalized to the control gene SMc00128 and are presented as average of three technical replicates. […] Data are presented as average of three technical replicates
RNA isolation and qRT-PCR analysis: Cells were grown in LB until they reached an O.D.600 nm of 0.2. Then cells were spun down and suspended in minimal media with or without appropriate FeSO4 concentrations for 1 hour. NCR247 was then added and 5 ml of appropriate cultures were spun down at given time intervals. Total RNA was extracted using Trizol™ (Thermo Fisher Scientific) method. Qiagen RNeasy™ kit was used to purify the RNA. […] The standard curve method was used for relative quantification. […] This curve was then used for extrapolating relative expression level of each gene of interest in a particular sample to obtain the starting quantities (SQ). […] These normalized values are then expressed as an average of triplicates, with standard deviation (s.d.) represented by the error bars. […]

T1 sequence (P05067 672-713, one chain of several): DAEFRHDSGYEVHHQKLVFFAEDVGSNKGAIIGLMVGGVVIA

## RNGCIVDPRCPYQQCRRPLYCRRR [NCR247]
Cytochrome c
  sequestration of heme from Cytochrome c: cannot sequester cytochrome heme; also recorded: inability of NCR247 to sequester heme from Cytochrome c
[1]
  haemolytic activity: did not detect haemolytic activities; also recorded: negligible hemolysis
[2]
  peroxidase activity of heme: intrinsic peroxidase activity of heme is quenched
Aβ-heme complex
  removal of heme from Aβ-heme complex: can strip the heme out of the Aβ-heme complex
S. meliloti
  uptake of 55Fe: markedly increased the import of ^55Fe
Candida albicans
  C. albicans biofilm formation: interferes with the ability of the opportunistic fungal pathogen Candida albicans to form biofilms; also recorded: can inhibit Candida albicans biofilms
[3]
  expression of FeuP and ExoS regulated genes: increased in expression; also recorded: increase in expression of ndvA
Water solubility
  water solubility: highly water soluble
